In ChEMBL document CHEMBL1149764, “Synthesis, structure and biological activity of pseudopeptidic macrolides based on an amino alcohol” (Eur J Med Chem, 2008):
Converted amounts (≈) assume the structure as drawn.

How the values were obtained:
Candida albicans = test: Antifungal activity against Candida albicans ATCC 10231 after 48 hrs standard broth microdilution method; type: functional; details: ATCC 10231, 48 h
Staphylococcus aureus = test: Antibacterial activity against Staphylococcus aureus ATCC 25923 after 24 hrs by twofold dilution method; type: functional; details: ATCC 25923, 24 h
Aspergillus niger = test: Antifungal activity against Aspergillus niger ATCC 16404 after 48 hrs standard broth microdilution method; type: functional; details: ATCC 16404, 48 h
[1] = Toxicity against human erythrocytes assessed as hemolytic activity at 1000 ug/ml; type: cell-based, Erythrocyte; details: read-out: Activity
Saccharomyces cerevisiae = test: Antifungal activity against Saccharomyces cerevisiae SYM 3513 after 48 hrs standard broth microdilution method; type: functional
Cryptococcus neoformans = test: Antifungal activity against Cryptococcus neoformans SYM 523 after 48 hrs standard broth microdilution method; type: functional
[2] = Toxicity against human erythrocytes assessed as hemolytic activity at 4000 ug/ml; type: cell-based, Erythrocyte; details: read-out: Activity
[3] = Antifungal activity against […] glutinis SYM 2209 after 48 hrs standard broth microdilution method; type: functional
[4] = Antifungal activity against […] nigricans SYM 2417 after 48 hrs standard broth microdilution method; type: functional
Bacillus subtilis = test: Antibacterial activity against Bacillus subtilis ATCC 6633 after 24 hrs by twofold dilution method; type: functional; details: ATCC 6633, 24 h
Escherichia coli = test: Antibacterial activity against Escherichia coli ATCC 25922 after 24 hrs by twofold dilution method; type: functional; details: ATCC 25922, 24 h
[5] = Toxicity against human erythrocytes assessed as hemolytic activity at 2000 ug/ml; type: cell-based, Erythrocyte; details: read-out: Activity
[6] = Toxicity against human erythrocytes assessed as hemolytic activity at 250 ug/ml; type: cell-based, Erythrocyte; details: read-out: Activity
[7] = Toxicity against human erythrocytes assessed as hemolytic activity at 500 ug/ml; type: cell-based, Erythrocyte; details: read-out: Activity
Pseudomonas aeruginosa = test: Antibacterial activity against Pseudomonas aeruginosa ATCC 27853 after 24 hrs by twofold dilution method; type: functional; details: ATCC 27853, 24 h
Aspergillus flavus = test: Antifungal activity against Aspergillus flavus SYM 223 after 48 hrs standard broth microdilution method; type: functional

## O=C1N[C@@H]2c3ccccc3C[C@@H]2OC(=O)c2cccc(n2)C(=O)O[C@H]2Cc3ccccc3[C@H]2NC(=O)c2cccc1n2
Candida albicans
  MIC: 1 µg/mL (≈ 1.78 µM)
Staphylococcus aureus
  MIC: 4 µg/mL (≈ 7.14 µM)
Aspergillus niger
  MIC: 4 µg/mL (≈ 7.14 µM)
[1]
  hemolysis at 1000 ug/ml: 0%
Saccharomyces cerevisiae
  MIC: 64 µg/mL (≈ 114 µM)
Cryptococcus neoformans
  MIC: 16 µg/mL (≈ 28.5 µM)
[2]
  hemolysis at 4000 ug/ml: 2%
[3]
  MIC: 16 µg/mL (≈ 28.5 µM)
[4]
  MIC: 8 µg/mL (≈ 14.3 µM)
Bacillus subtilis
  MIC: 8 µg/mL (≈ 14.3 µM)
Escherichia coli
  MIC: 32 µg/mL (≈ 57.1 µM)
[5]
  hemolysis at 2000 ug/ml: 1%
[6]
  hemolysis at 250 ug/ml: 0%
[7]
  hemolysis at 500 ug/ml: 0%
Pseudomonas aeruginosa
  MIC: > 64 µg/mL
Aspergillus flavus
  MIC: > 64 µg/mL

## O=C1O[C@H]2Cc3ccccc3[C@H]2NC(=O)c2cccc(c2)C(=O)N[C@@H]2c3ccccc3C[C@@H]2OC(=O)C2=CC=C1S2
Candida albicans
  MIC: 1 µg/mL (≈ 1.77 µM)
Staphylococcus aureus
  MIC: 16 µg/mL (≈ 28.3 µM)
Aspergillus niger
  MIC: 32 µg/mL (≈ 56.7 µM)
[1]
  hemolysis at 1000 ug/ml: 1%
Saccharomyces cerevisiae
  MIC: 16 µg/mL (≈ 28.3 µM)
Cryptococcus neoformans
  MIC: 4 µg/mL (≈ 7.08 µM)
[2]
  hemolysis at 4000 ug/ml: 9%
[3]
  MIC: 4 µg/mL (≈ 7.08 µM)
[4]
  MIC: 1 µg/mL (≈ 1.77 µM)
Bacillus subtilis
  MIC: > 64 µg/mL
Escherichia coli
  MIC: 16 µg/mL (≈ 28.3 µM)
[5]
  hemolysis at 2000 ug/ml: 4%
[6]
  hemolysis at 250 ug/ml: 0%
[7]
  hemolysis at 500 ug/ml: 0%
Pseudomonas aeruginosa
  MIC: > 64 µg/mL
Aspergillus flavus
  MIC: 8 µg/mL (≈ 14.2 µM)

## O=C1O[C@H]2Cc3ccccc3[C@H]2NC(=O)c2cccc(n2)C(=O)N[C@@H]2c3ccccc3C[C@@H]2OC(=O)c2cccc1c2
Candida albicans
  MIC: 4 µg/mL (≈ 7.15 µM)
Staphylococcus aureus
  MIC: 32 µg/mL (≈ 57.2 µM)
Aspergillus niger
  MIC: 4 µg/mL (≈ 7.15 µM)
[1]
  hemolysis at 1000 ug/ml: 3%
Saccharomyces cerevisiae
  MIC: 16 µg/mL (≈ 28.6 µM)
Cryptococcus neoformans
  MIC: 8 µg/mL (≈ 14.3 µM)
[2]
  hemolysis at 4000 ug/ml: 9%
[3]
  MIC: 8 µg/mL (≈ 14.3 µM)
[4]
  MIC: 4 µg/mL (≈ 7.15 µM)
Bacillus subtilis
  MIC: 4 µg/mL (≈ 7.15 µM)
Escherichia coli
  MIC: > 64 µg/mL
[5]
  hemolysis at 2000 ug/ml: 6%
[6]
  hemolysis at 250 ug/ml: 0%
[7]
  hemolysis at 500 ug/ml: 0%
Pseudomonas aeruginosa
  MIC: 32 µg/mL (≈ 57.2 µM)
Aspergillus flavus
  MIC: 8 µg/mL (≈ 14.3 µM)

## OC(Cn1cncn1)(Cn1cncn1)c1ccc(F)cc1F [FLUCONAZOLE]
Candida albicans
  MIC: 16 µg/mL (≈ 52.2 µM)
Aspergillus niger
  MIC: 64 µg/mL (≈ 209 µM)
Saccharomyces cerevisiae
  MIC: 32 µg/mL (≈ 104 µM)
Cryptococcus neoformans
  MIC: 32 µg/mL (≈ 104 µM)
[3]
  MIC: > 64 µg/mL
Aspergillus flavus
  MIC: 64 µg/mL (≈ 209 µM)

## O=C1N[C@@H]2c3ccccc3C[C@@H]2OC(=O)c2cccc(c2)C(=O)O[C@H]2Cc3ccccc3[C@H]2NC(=O)c2cccc1c2
Candida albicans
  MIC: 1 µg/mL (≈ 1.79 µM)
Staphylococcus aureus
  MIC: 4 µg/mL (≈ 7.16 µM)
Aspergillus niger
  MIC: 8 µg/mL (≈ 14.3 µM)
[1]
  hemolysis at 1000 ug/ml: 0%
Saccharomyces cerevisiae
  MIC: 32 µg/mL (≈ 57.3 µM)
Cryptococcus neoformans
  MIC: 4 µg/mL (≈ 7.16 µM)
[2]
  hemolysis at 4000 ug/ml: 2%
[3]
  MIC: 4 µg/mL (≈ 7.16 µM)
[4]
  MIC: 1 µg/mL (≈ 1.79 µM)
Bacillus subtilis
  MIC: 8 µg/mL (≈ 14.3 µM)
Escherichia coli
  MIC: 16 µg/mL (≈ 28.6 µM)
[5]
  hemolysis at 2000 ug/ml: 0.5%
[6]
  hemolysis at 250 ug/ml: 0%
[7]
  hemolysis at 500 ug/ml: 0%
Pseudomonas aeruginosa
  MIC: > 64 µg/mL
Aspergillus flavus
  MIC: 2 µg/mL (≈ 3.58 µM)

## O=C(N[C@H](CO)[C@H](O)c1ccc([N+](=O)[O-])cc1)C(Cl)Cl [CHLORAMPHENICOL]
Staphylococcus aureus
  MIC: 4 µg/mL (≈ 12.4 µM)
Bacillus subtilis
  MIC: 8 µg/mL (≈ 24.8 µM)
Escherichia coli
  MIC: 8 µg/mL (≈ 24.8 µM)
Pseudomonas aeruginosa
  MIC: 32 µg/mL (≈ 99 µM)

## O=C1O[C@H]2Cc3ccccc3[C@H]2NC(=O)c2cccc(n2)C(=O)N[C@@H]2c3ccccc3C[C@@H]2OC(=O)C2=CC=C1S2
Candida albicans
  MIC: 1 µg/mL (≈ 1.77 µM)
Staphylococcus aureus
  MIC: 8 µg/mL (≈ 14.1 µM)
Aspergillus niger
  MIC: 4 µg/mL (≈ 7.07 µM)
[1]
  hemolysis at 1000 ug/ml: 4%
Saccharomyces cerevisiae
  MIC: 8 µg/mL (≈ 14.1 µM)
Cryptococcus neoformans
  MIC: 4 µg/mL (≈ 7.07 µM)
[2]
  hemolysis at 4000 ug/ml: 14%
[3]
  MIC: 4 µg/mL (≈ 7.07 µM)
[4]
  MIC: 1 µg/mL (≈ 1.77 µM)
Bacillus subtilis
  MIC: > 64 µg/mL
Escherichia coli
  MIC: > 64 µg/mL
[5]
  hemolysis at 2000 ug/ml: 6%
[6]
  hemolysis at 250 ug/ml: 0.5%
[7]
  hemolysis at 500 ug/ml: 1%
Pseudomonas aeruginosa
  MIC: > 64 µg/mL
Aspergillus flavus
  MIC: 1 µg/mL (≈ 1.77 µM)

## C[C@@H]1[C@H](O)[C@@H](C)/C=C/C=C/C=C/C=C/C=C/C=C/C=C/[C@H](O[C@@H]2O[C@H](C)[C@@H](O)[C@H](N)[C@@H]2O)C[C@@H]2O[C@](O)(C[C@@H](O)C[C@@H](O)[C@H](O)CC[C@@H](O)C[C@@H](O)CC(=O)O[C@H]1C)C[C@H](O)[C@H]2C(=O)O [AMPHOTERICIN B]
Candida albicans
  MIC: 1 µg/mL (≈ 1.08 µM)
Aspergillus niger
  MIC: 1 µg/mL (≈ 1.08 µM)
Saccharomyces cerevisiae
  MIC: 0.5 µg/mL (≈ 0.541 µM)
[3]
  MIC: 2 µg/mL (≈ 2.16 µM)
Aspergillus flavus
  MIC: 0.5 µg/mL (≈ 0.541 µM)

## O=C1N[C@@H]2c3ccccc3C[C@@H]2OC(=O)c2cccc(n2)C(=O)O[C@H]2Cc3ccccc3[C@H]2NC(=O)c2cccc1c2
Candida albicans
  MIC: 4 µg/mL (≈ 7.15 µM)
Staphylococcus aureus
  MIC: 16 µg/mL (≈ 28.6 µM)
Aspergillus niger
  MIC: 8 µg/mL (≈ 14.3 µM)
[1]
  hemolysis at 1000 ug/ml: 2%
Saccharomyces cerevisiae
  MIC: 32 µg/mL (≈ 57.2 µM)
Cryptococcus neoformans
  MIC: 16 µg/mL (≈ 28.6 µM)
[2]
  hemolysis at 4000 ug/ml: 7%
[3]
  MIC: 8 µg/mL (≈ 14.3 µM)
[4]
  MIC: 4 µg/mL (≈ 7.15 µM)
Bacillus subtilis
  MIC: > 64 µg/mL
Escherichia coli
  MIC: 32 µg/mL (≈ 57.2 µM)
[5]
  hemolysis at 2000 ug/ml: 4%
[6]
  hemolysis at 250 ug/ml: 0%
[7]
  hemolysis at 500 ug/ml: 0%
Pseudomonas aeruginosa
  MIC: > 64 µg/mL
Aspergillus flavus
  MIC: 2 µg/mL (≈ 3.57 µM)
